Data as given in US6596712B2, “Treatment of carcinomas using squalamine in combination with other anti-cancer agents or modalities” (Genaera Corporation, priority 1996, dated 2003).

What was measured:
rat 9L glioma = assay: Glioma lethality study, rat glioma implanted into rat brain; format: in vivo; details: 20 mg/kg/day i.p. from three days after implantation
Text: FIG. 10 illustrates survival test results using squalamine in a glioma lethality study with a rat 9L glioma introduced into the brains of healthy rats;
In view of these test results, applicants tested squalamine in an animal model for brain cancer. To test the effect of squalamine on tumors located in the brain, small sections (1 mm3) of existing rat gliomas were taken from rat flanks where they were being maintained and were implanted into the rat brains in two groups of rats. Thus, in this model, the tumors were viable when placed in the rat brain. Three days after implantation, and after some vasculature had developed, treatment with 20 mg/kg/day of squalamine (i.p.) was initiated in one group of rats. The control animals (“vehicle control” in FIG. 10) were given the carrier vehicle only (no squalamine), and the other animals were treated with squalamine (“Squalamine” in FIG. 10).

rabbit NHE3 = biological target: T1, rabbit NHE3 (Oryctolagus cuniculus, UniProt P26432); assay: NHE activity, rabbit NHE3; format: cell-based; details: for decrease of Vmax of rabbit NHE3: 1 hour pretreatment
T1 construct: expressed in transfected cells
T1 sequence (P26432 30-832): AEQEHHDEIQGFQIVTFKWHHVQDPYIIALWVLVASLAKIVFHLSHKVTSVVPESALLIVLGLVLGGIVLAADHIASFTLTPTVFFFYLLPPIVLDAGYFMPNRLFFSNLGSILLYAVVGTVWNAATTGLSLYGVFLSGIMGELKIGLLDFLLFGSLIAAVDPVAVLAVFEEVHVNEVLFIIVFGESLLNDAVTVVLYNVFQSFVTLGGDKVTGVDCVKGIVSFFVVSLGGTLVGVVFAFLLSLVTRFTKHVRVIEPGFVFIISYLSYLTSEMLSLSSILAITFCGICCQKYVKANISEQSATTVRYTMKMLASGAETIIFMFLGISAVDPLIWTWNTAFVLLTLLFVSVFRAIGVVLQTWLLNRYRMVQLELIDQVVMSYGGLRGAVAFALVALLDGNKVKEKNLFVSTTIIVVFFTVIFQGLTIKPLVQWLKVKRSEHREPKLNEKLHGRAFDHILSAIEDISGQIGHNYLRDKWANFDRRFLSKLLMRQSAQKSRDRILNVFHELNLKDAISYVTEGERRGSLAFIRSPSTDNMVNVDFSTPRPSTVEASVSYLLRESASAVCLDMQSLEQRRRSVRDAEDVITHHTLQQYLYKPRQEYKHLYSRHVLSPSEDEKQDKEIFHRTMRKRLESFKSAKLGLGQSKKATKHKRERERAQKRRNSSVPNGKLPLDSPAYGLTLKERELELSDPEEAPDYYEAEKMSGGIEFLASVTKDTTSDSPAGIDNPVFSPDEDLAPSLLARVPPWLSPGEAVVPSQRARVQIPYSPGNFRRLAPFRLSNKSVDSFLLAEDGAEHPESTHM

rabbit corneas = assay: Inflammation in rabbit cornea without angiogenic stimulus; format: in vivo; details: pellets with 2%, 10% and 20% squalamine by weight
Description: In the rabbit corneal micropocket assay test, if the rabbit cornea becomes inflamed, this inflammation can lead to the formation of new blood vessels in the cornea. Such inflammation would skew the test results. Therefore, tests were conducted to determine whether squalamine, in and of itself, was responsible for any inflammatory response in the cornea. Several non-bioresorbable ethylene/vinyl acetate copolymer pellets were loaded with different concentrations of squalamine, namely, 2%, 10%, and 20% squalamine, by weight.

NHE = assay: Direct addition to PS 120 fibroblasts during measurement of exchanger activity; format: cell-based; details: no pretreatment
Text: Direct addition of squalamine to PS 120 fibroblasts during measurement of the exchanger activity had no effect.

[1] = Tissue distribution after i.v. administration; format: in vivo, mouse; details: two hours after i.v. administration
Text: In addition to these squalamine half-life tests, applicants have tested to ascertain the distribution of squalamine in a mouse after intravenous administration. FIG. 7 illustrates the distribution of squalamine in mouse tissue two hours after i.v. administration. […] The test results shown in FIG. 7 indicate good squalamine distribution. […] In treating brain tumors, it is believed that the squalamine acts on the endothelial cells in the brain, and in this way, it need not cross the brain/blood barrier

[2] = Pharmacokinetic study, half-life; details: in vivo
Description: A pharmacokinetic study of squalamine was performed to ascertain the residence time of squalamine in the body. FIGS. 6a to 6c illustrate the test results where squalamine was administered subcutaneously (50 mg/kg, FIG. 6a), intraperitoneally (dose 240 μg; 10 mg/kg, FIG. 6b), and intravenously (10 mg/kg, FIG. 6c).

[3] = system: Syngeneic mammary carcinoma MCA-4 tumor cells; assay: MCA-4 mammary carcinoma tumor growth delay with radiation; format: in vivo, C3Hf/Kam male mice
Description: Syngeneic mammary carcinoma MCA-4 tumor cells (5×10^5) were injected intramuscularly into the right legs of C3Hf/Kam male mice (4 months of age). When the tumors reached 6 mm in diameter, the mice were randomly assigned to receive: (a) no treatment, (b) squalamine alone (20 mg/kg/day b.i.d. for 11-14 days), (c) 15 Gy of gamma irradiation, or (d) squalamine plus 15 Gy of gamma rays. Tumor growth was followed until tumors reached at least 12 mm in diameter. The effect of squalamine on tumor radioresponse was determined by absolute and normalized tumor growth delays (AGD and NGD). AGD is defined as the time in days for tumors treated with radiation (or squalamine) to grow from 8 to 12 mm minus the time in days for untreated tumors to grow from 8-12 mm. NGD is defined as the time in days for tumors treated with both squalamine and radiation to grow from 8 to 12 mm minus the time in days for tumors treated with squalamine only to grow from 8 to 12 mm. An enhancement factor (EF) was determined as the ratio of NGD to AGD. The EF for squalamine with 15 Gy gamma rays calculated from the observed times for tumor growth (Table 8) is >1.5.

[4] = Squalamine toxicity test in rats; format: in vivo; details: 20 mg/kg/day i.p. for more than 30 days; maintained up to 200 days
Description: A squalamine toxicity test was performed in another animal model. Conventional cytotoxic chemical compounds are quite toxic. […] For this reason, it is administered only one time to a patient. The use of BCNU is described on pages 304 and 305 of Calabresi in Medical Oncology, supra. In order to test the toxicity of squalamine, a group of rats was given a daily squalamine dose of 20 mg/kg/day (i.p.) for more than 30 days and maintained for up to 200 days following dosing.

For `CC(C)[C@@H](CC[C@@H](C)[C@H]1CC[C@H]2[C@@H]3[C@H](O)C[C@H]4C[C@@H](NCCCNCCCCN)CC[C@]4(C)[C@H]3CC[C@]12C)OS(=O)(=O)O` [Squalamine, squalamine], the “increase in mean survival time” value (rat 9L glioma) was 38%, the mean survival time (rat 9L glioma) was 24.9 days and the “time dependence of effect on Vmax” value (rabbit NHE3) was “maximum effect occurring at one hour exposure”. The “decrease of Vmax of rabbit NHE3” value (rabbit NHE3; 1 μg squalamine/ml) was 13%, the “decrease of Vmax of rabbit NHE3” value (rabbit NHE3; 5 μg squalamine/ml) was 47% and the “decrease of Vmax of rabbit NHE3” value (rabbit NHE3; 7 μg squalamine/ml) was 57%. The “reversibility of effect on Vmax” value (rabbit NHE3; after removing the cells from the medium) was “fully reversible within three hours”, the “effect on rabbit NHE3” value (rabbit NHE3; similar tests) was “inhibited” and the “inflammation in the cornea” value (rabbit corneas) was “did not induce inflammation”. For the same compound, the “effect of direct addition during measurement of exchanger activity” value (NHE) was “no effect”, the “distribution in mouse tissue” value [1] was “most of the squalamine concentrating in the liver and the small intestine” and the “squalamine in brain tissue” value [1] was “not much squalamine is present in brain tissue”. For the same compound, the half-life ([2]; ip, intraperitoneally, dose 240 μg, 10 mg/kg) was 2.87 h, the half-life ([2]; iv, intravenously, 10 mg/kg) was 0.583 h and the half-life ([2]; sc, subcutaneously, 50 mg/kg) was 5.6 h. For the same compound, the AGD ([3]; absolute tumor growth delay) was 0 days, the “Time to Grow From 8 to 12 mm” value ([3]; squalamine 20 mg/kg/day b.i.d. for 11-14 days, 15 Gy gamma irradiation) was 6 days and the “toxicity, health of animals” value [4] was “remained healthy”.
